Tested on: 885724-159-R-J1-PDC complex spheroid viability
Experiment: Anticancer human tumor 885724-159-R-J1-PDC patient-derived pancreatic adenocarcinoma cell line growth inhibition [POLQ]
Details: for IC50: curve of first compound; for viability, T/C: stronger effect = lower value
Description: Multicellular complex tumor spheroid response to Polymerase (POL) inhibitors (novobiocin, ART-558, RP6685) in combination with a variety of drugs and investigational agents in selected tumor cell lines
The POL inhibitors (novobiocin, ART-558, and RP6685) were evaluated both individually and in combination with standard of care and investigational anticancer small molecules within a complex spheroid model of solid tumors. . Complex spheroids include a stromal component modeled by human endothelial cells (HUVEC) and fibroblasts modeled by human mesenchymal stem cells (MSCs). The concentration ranges selected for each drug and investigational agent were based upon clinically achievable concentrations if the clinical Cmax of the agent was known.
Compounds. The drugs and investigational agents: novobiocin (NSC847541), ART-558 (NSC835418), RP-6685 (NSC848927), peposertib (NSC802822), ceralasertib (NSC780249), elimusertib (NSC800525), camonsertib (NSC841442), AZD-1390 (NSC803789), olaparib (NSC753686), talazoparib (NSC767125), rucaparib (NSC756644), sotorasib (NSC818433), MRTX-1133 (NSC836407), SN-38 (NSC673596), topotecan (NSC609699), epotoside (NSC141540), doxorubicin (NSC123127), gemcitabine (NSC613327), 5-fluorouracil (NSC19893), paclitaxel (NSC125973), vemurafenib (NSC761431), MSA-2 (NSC828583), SN-011 (NSC837082), adavosertib (NSC754352), prexasertib (NSC758257), carboplatin (NSC241240) and oxaliplatin (NSC266046), were obtained from the National Cancer Institute (NCI) Developmental Therapeutics Program Chemical Repository (21). The FDA-approved anticancer drug set is available from the Developmental Therapeutics Program at https://dtp.cancer.gov/organization/dscb/obtaining/. […] The stock solutions were prepared in dimethyl sulfoxide (DMSO, Sigma-Aldrich, St. Louis, MO, cat. D2650), except for the platinum compounds which were prepared in saline (Quality Biological, Gaithersburg, MD, cat. 114-055-101), at 800-fold the tested concentration and stored at -70 degrees C prior to their use. All drugs and investigational agents were tested over a range starting from a high concentration at or near the clinical Cmax and decreasing in half-log increments. If the clinical Cmax for an agent had not been determined, the highest concentration tested was 10 microM, except for SN-38, which was tested at a high concentration of 1 microM.
Cell Culture. All cells were maintained in an incubator at 37 degrees C and 5% CO2 with 95% humidity. The PDC lines were cultured according to standard operating procedures established by the NCI PDMR (https://pdmr.cancer.gov). Table 3 of the manuscript, lists the cell lines along with the number of the three cell types plated to form the mct-spheroids and media for tumor cell growth. After thawing, all PDC lines, except 997537-175-T-J1-PDC and 415267-285-R-J2-PDC, were cultured in Matrigel-coated flasks prepared with a working solution of 1X Ham's F-12 nutrient mix, without supplementation (Thermo Fisher Scientific, cat. 11765054), 100 U/mL penicillin-streptomycin (Thermo Fisher Scientific, cat. 15140122), and 2.5% Matrigel (Corning Inc., Corning, NY, cat. 354248) for the first three passages. The two PDC lines 997537-175-T-J1-PDC and 415267-285-R-J2-PDC were cultured on uncoated flasks. The 857933-349-R-J2-PDC line was cultured in 6C/Colon 1B media containing advanced DMEM/F-12 (Thermo Fisher Scientific, cat. 12634028), 10 mM HEPES (Thermo Fisher Scientific, cat. 15630080), 1X GlutaMAX supplement (Thermo Fisher Scientific, cat. 35050061), 0.1 mg/mL primocin (InvivoGen, San Diego, CA, cat. ant-pm-2), 10% defined fetal bovine serum, heat inactivated (HyClone Laboratories Inc., Logan, UT, cat. SH30070.03HI), 50% L-WRN conditioned media (ATCC, cat. CRL-3276), 1.25 mM N-Acetyl-L-cysteine (Sigma-Aldrich, cat. A9165), 10 mM nicotinamide (Sigma-Aldrich, cat. N0636), 1X B-27 supplement (Thermo Fisher Scientific, cat. 17504044), 1X N-2 supplement (Thermo Fisher Scientific, cat. […]
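Also: spheroids exposed to compounds for 7 days.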

Work on Nc1ccn(C2OC(CO)C(O)C2(F)F)c(=O)n1 (configuration not stated) + Nc1ccc(C#CCN(C(=O)Cc2ncc(C(F)(F)F)cc2C(F)(F)F)c2ccc(F)cc2)nn1 yielded an IC50 (second compound 0.0316 µM) of 1040 nM, an IC50 (second compound 0.1 µM) of 1880 nM and an IC50 (second compound 0.316 µM) of 2270 nM. For the same molecule, the IC50 (second compound 1 µM) was 886 nM, the IC50 (second compound 3.16 µM) was > 10000 nM and the IC50 (second compound 10 µM) was > 10000 nM. The viability, T/C (second compound 0.0316 µM, first compound 0.0316 µM) was 65.5%, the viability, T/C (second compound 0.0316 µM, first compound 0.1 µM) was 57.2% and the viability, T/C (second compound 0.0316 µM, first compound 0.316 µM) was 47%. It also gave a viability, T/C (second compound 0.0316 µM, first compound 1 µM) of 55.1%, a viability, T/C (second compound 0.0316 µM, first compound 3.16 µM) of 54.8% and a viability, T/C (second compound 0.0316 µM, first compound 10 µM) of 42.1%. It also gave a viability, T/C (second compound 0.1 µM, first compound 0.0316 µM) of 70.2%, a viability, T/C (second compound 0.1 µM, first compound 0.1 µM) of 60.2% and a viability, T/C (second compound 0.1 µM, first compound 0.316 µM) of 54.3%. It also gave a viability, T/C (second compound 0.1 µM, first compound 1 µM) of 55.2%, a viability, T/C (second compound 0.1 µM, first compound 3.16 µM) of 49.6% and a viability, T/C (second compound 0.1 µM, first compound 10 µM) of 44.2%. For the same molecule, the viability, T/C (second compound 0.316 µM, first compound 0.0316 µM) was 72%, the viability, T/C (second compound 0.316 µM, first compound 0.1 µM) was 62.9% and the viability, T/C (second compound 0.316 µM, first compound 0.316 µM) was 56.5%. The viability, T/C (second compound 0.316 µM, first compound 1 µM) was 53.2%, the viability, T/C (second compound 0.316 µM, first compound 3.16 µM) was 49.1% and the viability, T/C (second compound 0.316 µM, first compound 10 µM) was 46.3%. The viability, T/C (second compound 1 µM, first compound 0.0316 µM) was 72.4%, the viability, T/C (second compound 1 µM, first compound 0.1 µM) was 55.4% and the viability, T/C (second compound 1 µM, first compound 0.316 µM) was 54.2%. For the same molecule, the viability, T/C (second compound 1 µM, first compound 1 µM) was 51.2%, the viability, T/C (second compound 1 µM, first compound 3.16 µM) was 49% and the viability, T/C (second compound 1 µM, first compound 10 µM) was 47.1%. It also gave a viability, T/C (second compound 3.16 µM, first compound 0.0316 µM) of 77.5%, a viability, T/C (second compound 3.16 µM, first compound 0.1 µM) of 60.9% and a viability, T/C (second compound 3.16 µM, first compound 0.316 µM) of 55.7%. The viability, T/C (second compound 3.16 µM, first compound 1 µM) was 50.8%, the viability, T/C (second compound 3.16 µM, first compound 3.16 µM) was 55.8% and the viability, T/C (second compound 3.16 µM, first compound 10 µM) was 46.4%. The viability, T/C (second compound 10 µM, first compound 0.0316 µM) was 96%, the viability, T/C (second compound 10 µM, first compound 0.1 µM) was 72% and the viability, T/C (second compound 10 µM, first compound 0.316 µM) was 69.3%. For the same molecule, the viability, T/C (second compound 10 µM, first compound 1 µM) was 59.2%, the viability, T/C (second compound 10 µM, first compound 3.16 µM) was 54.9% and the viability, T/C (second compound 10 µM, first compound 10 µM) was 55.2%.
